Results published in patent publication US10233186B2, “Inhibitors of activin receptor-like kinase” (BLUEPRINT MEDICINES CORPORATION, priority 2016, dated 2019).

Columns and labels:
human ALK2 R206H = molecular target: T1, human ALK2 R206H (Homo sapiens, UniProt Q04771, R206H); assay: Cell-based ALK2-R206H cell activity assay (Smad1-Ser463/Ser465 phosphorylation by AlphaLISA in HEK293-ALK2-R206H cells); conditions: read-out: Cell Line (Cell Assay IC50)
T1 construct: expressed in transfected cells; host or cells: HEK293 (ATCC CRL1573), lentivirus transduction, blasticidin selection
T1 sequence (Q04771 21-509 R206H): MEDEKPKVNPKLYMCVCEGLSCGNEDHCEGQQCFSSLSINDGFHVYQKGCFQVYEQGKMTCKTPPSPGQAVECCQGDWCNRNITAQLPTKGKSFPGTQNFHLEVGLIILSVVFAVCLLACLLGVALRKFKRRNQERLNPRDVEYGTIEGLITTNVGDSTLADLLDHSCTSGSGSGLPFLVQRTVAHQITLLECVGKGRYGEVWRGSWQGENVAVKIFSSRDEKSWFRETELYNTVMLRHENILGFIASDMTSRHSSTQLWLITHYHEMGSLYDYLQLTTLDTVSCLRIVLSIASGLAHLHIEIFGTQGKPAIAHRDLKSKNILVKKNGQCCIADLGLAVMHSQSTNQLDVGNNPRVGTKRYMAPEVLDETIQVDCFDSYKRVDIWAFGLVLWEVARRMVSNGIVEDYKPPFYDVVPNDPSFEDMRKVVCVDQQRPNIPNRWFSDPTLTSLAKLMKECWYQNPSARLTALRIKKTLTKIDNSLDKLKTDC
In short: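 Stable HEK293 cells expressing C-terminally FLAG-tagged human ALK2 R206H (lentiviral, blasticidin-selected) were treated with compounds in 10-point, 3-fold dilutions from 10 μM or 1 μM top, in duplicate. Smad1 Ser463/Ser465 phosphorylation was read by AlphaLISA.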

[1] = molecular target: T2, ALK2 R206H (GST-tagged mutant ALK2) (Homo sapiens, UniProt Q04771, R206H); assay: ALK binding assay (LANTHASCREEN TR-FRET competitive binding, displacement of Kinase Tracer 178); conditions: ALK2 R206H, LANTHASCREEN TR-FRET competitive binding; read-out: Binding Assay (IC50)
T2 construct: purchased Carna Bioscience or ThermoFisher 09-148 or PV6232
T2 sequence (Q04771 21-509 R206H): T1 sequence (Q04771 21-509 R206H)

Row | Compound | IC50 (human ALK2 R206H) [nM] | IC50 [1] [nM]
1 | COC1(c2ccc(-c3cc4c(N5CCN(C(=O)OC6COC6)CC5)ccnn4c3)c(F)c2)CCN(C(C)C)CC1 [Compound 737] | < 100 | < 10
2 | CC(C)NC(=O)N1CCN(c2ccnn3cc(-c4ccc(C5(C(F)(F)F)CCN(C(C)C)CC5)cc4)cc23)CC1 [Compound 738] | < 100 | < 10
3 | COC1(c2ccc(-c3cc4c(N5CCN(C(=O)[C@H]6C[C@H](C#N)C6)CC5)ccnn4c3)cc2)CCN([C@H](C)CO)CC1 [Compound 739] | < 100 | < 10
4 | COC1(c2ccc(-c3cc4c(N5CCN(C(=O)[C@H]6C[C@H](C#N)C6)CC5)ccnn4c3)cc2)CCN([C@@H](C)CO)CC1 [Compound 740] | < 100 | < 10
5 | COC1(c2ccc(-c3cc4c(N5CCN(C(=O)[C@H]6C[C@H](C#N)C6)CC5)ccnn4c3)nc2)CCN([C@@H](C)CO)CC1 [Compound 741] | < 100 | < 10
6 | COC[C@H](C)N1CCC(OC)(c2ccc(-c3cc4c(N5CCN(C(=O)OC6COC6)CC5)ccnn4c3)nc2)CC1 [Compound 743] | < 100 | < 10
7 | COC[C@@H](C)N1CCC(OC)(c2ccc(-c3cc4c(N5CCN(C(=O)OC6COC6)CC5)ccnn4c3)nc2)CC1 [Compound 744] | < 100 | < 10
8 | COC[C@H](C)N1CCC(OC)(c2ccc(-c3cc4c(N5CCN(C(=O)[C@H]6C[C@H](C#N)C6)CC5)ccnn4c3)cc2)CC1 [Compound 745] | < 100 | < 10
9 | COC[C@@H](C)N1CCC(OC)(c2ccc(-c3cc4c(N5CCN(C(=O)[C@H]6C[C@H](C#N)C6)CC5)ccnn4c3)cc2)CC1 [Compound 746] | < 100 | < 10
10 | CC(C)N1CCC(c2ccc(-c3cc4c(N5CCN(C(=O)OC6COC6)CC5)ccnn4c3)cc2)(C(F)(F)F)CC1 [Compound 747] | < 100 | < 10
11 | COC[C@H](C)N1CCC(OC)(c2ccc(-c3cc4c(N5CCN(C(=O)[C@H]6C[C@H](C#N)C6)CC5)ccnn4c3)nc2)CC1 [Compound 748] | < 100 | < 10
12 | COC[C@@H](C)N1CCC(OC)(c2ccc(-c3cc4c(N5CCN(C(=O)[C@H]6C[C@H](C#N)C6)CC5)ccnn4c3)nc2)CC1 [Compound 749] | < 100 | < 10
13 | COC1(c2ccc(-c3cc4c(N5CCN(C(=O)NC(C)C)CC5)ccnn4c3)nc2)CCN([C@H](C)COC(F)F)CC1 [Compound 750] | < 100 | < 10
14 | N[C@H](CO)c1ccc(-c2cc3c(N4CCN(C(=O)C5CC5)CC4)ccnn3c2)cc1 [Compound 752] | 100 to 500 | < 10
15 | N[C@@H](CO)c1ccc(-c2cc3c(N4CCN(C(=O)C5CC5)CC4)ccnn3c2)cc1 [Compound 753] | < 100 | < 10
16 | CCOC(=O)N1CCN(c2ccnn3cc(-c4ccc([C@@H](N)CO)cc4)cc23)CC1 [Compound 754] | < 100 | < 10
17 | NC1(c2ccc(-c3cc4c(N5CCN(C(=O)C6CC6)CC5)ccnn4c3)cc2)COC1 [Compound 755] | 100 to 500 | < 10
18 | O=C(C1CC1)N1CCN(c2ccnn3cc(-c4ccc(CNC5COC5)cc4)cc23)CC1 [Compound 760] | 100 to 500 | < 10
19 | CC(C)(O)C(N)c1ccc(-c2cc3c(N4CCN(C(=O)C5CC5)CC4)ccnn3c2)cc1 (stereo not shown) [Compound 761] | < 100 | < 10
20 | N[C@H](CO)c1ccc(-c2cc3c(N4CCN(C(=O)OC5COC5)CC4)ccnn3c2)cc1 [Compound 762] | 100 to 500 | < 10
21 | N[C@@H](CO)c1ccc(-c2cc3c(N4CCN(C(=O)OC5COC5)CC4)ccnn3c2)cc1 [Compound 763] | < 100 | < 10
22 | CCOC(=O)N1CCN(c2ccnn3cc(-c4ccc(C(N)C(C)(C)O)cc4)cc23)CC1 (stereo not shown) [Compound 764] | < 100 | < 10
23 | NC1(c2ccc(-c3cc4c(N5CCN(C(=O)C6CC6)CC5)ccnn4c3)cc2)CCOCC1 [Compound 768] | < 100 | < 10
